According to patent US6358885B1, “Substituted phenylheterocyclic herbicides” (Mississippi State University, priority 1992, dated 2002):

Key:
soybean [1] = assay: Test B preemergence/postemergence greenhouse plant response rating 0 to 10; assay type: in vivo, Glycine max; settings: 0 to 10 scale
Method in brief: (§1)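 Postemergence treatment of plants two to eighteen cm tall ran alongside preemergence treatment of planted seed, each using compound in a non-phytotoxic solvent.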

soybean [2] = assay: Test C preemergence/postemergence greenhouse plant response rating 0 to 100; assay type: in vivo, Glycine max; settings: POSTEMERGENCE; for Plant response rating, Soybean: 0 to 100 scale
Method in brief: (§2)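 Compounds in non-phytotoxic solvent went onto sandy loam before emergence (seeded one day earlier) or onto plants at the one-to-four leaf stage. Duck salad was treated via flood water (~2.5 cm, maintained) over silt loam.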

cheatgrass = assay: Test B preemergence/postemergence greenhouse plant response rating 0 to 10; assay type: in vivo, Bromus secalinus; settings: 0 to 10 scale
Method in brief: as §1

wild buckwheat = assay: Test C preemergence/postemergence greenhouse plant response rating 0 to 100; assay type: in vivo, Polygonum convolvulus; settings: POSTEMERGENCE; for Plant response rating, Wild buckwheat: 0 to 100 scale
Method in brief: as §2

chickweed = assay: as above; assay type: in vivo, Stellaria media; settings: POSTEMERGENCE; for Plant response rating, Chickweed: 0 to 100 scale
Method in brief: as §2

giant foxtail = assay: Test B preemergence/postemergence greenhouse plant response rating 0 to 10; assay type: in vivo, Setaria faberii; settings: 0 to 10 scale
Method in brief: as §1

rape = assay: as above; assay type: in vivo, Brassica napus; settings: 0 to 10 scale
Method in brief: as §1

lambsquarters [3] = assay: Test C preemergence/postemergence greenhouse plant response rating 0 to 100; assay type: in vivo, Chenopodium album; settings: POSTEMERGENCE; for Plant response rating Lambsquarters: 0 to 100 scale
Method in brief: as §2

crabgrass = assay: Test B preemergence/postemergence greenhouse plant response rating 0 to 10; assay type: in vivo, Digitaria spp.; settings: 0 to 10 scale
Method in brief: as §1

barley [4] = assay: Test C preemergence/postemergence greenhouse plant response rating 0 to 100; assay type: in vivo, Hordeum vulgare; settings: POSTEMERGENCE; for Plant response rating Barley Igri: 0 to 100 scale
Method in brief: as §2

pigweed = assay: as above; assay type: in vivo, Amaranthusretroflexus; settings: POSTEMERGENCE; for Plant response rating Pigweed: 0 to 100 scale
Method in brief: as §2

sugar beet = assay: as above; assay type: in vivo, Beta vulgaris; settings: POSTEMERGENCE; for Plant response rating, Sugar beet: 0 to 100 scale
Method in brief: as §2

purple nutsedge = assay: Test B preemergence/postemergence greenhouse plant response rating 0 to 10; assay type: in vivo, Cyperus rotundus; settings: 0 to 10 scale
Method in brief: as §1

blackgrass = assay: as above; assay type: in vivo, Alopecurus myosuroides; settings: 0 to 10 scale
Method in brief: as §1

velvetleaf = assay: as above; assay type: in vivo, Abutilon theophrasti; settings: 0 to 10 scale
Method in brief: as §1

ryegrass = assay: Test C preemergence/postemergence greenhouse plant response rating 0 to 100; assay type: in vivo, Lolium multiflorum; settings: POSTEMERGENCE; for Plant response rating Ryegrass: 0 to 100 scale
Method in brief: as §2

lambsquarters [5] = assay: Test B preemergence/postemergence greenhouse plant response rating 0 to 10; assay type: in vivo, Chenopodium album; settings: 0 to 10 scale
Method in brief: as §1

barley [6] = assay: as above; assay type: in vivo, Hordeum vulgare; settings: 0 to 10 scale
Method in brief: as §1

## CC(C)OC(=O)c1cc(-c2nn3c(c2Cl)CCCC3)c(F)cc1Cl [Compound 44]
Soybean [1]; POSTEMERGENCE, Rate 50 g/ha
  Plant response rating, Soybean: 8
Soybean [1]; PREEMERGENCE, Rate 50 g/ha
  Plant response rating, Soybean: 0
Soybean [1]; Rate 200 g/ha, POSTEMERGENCE
  Plant response rating, Soybean: 8
Soybean [1]; Rate 200 g/ha, PREEMERGENCE
  Plant response rating, Soybean: 3
Soybean [2]; 62 g/ha
  Plant response rating, Soybean: 50
Soybean [2]; 250 g/ha
  Plant response rating, Soybean: 70
Soybean [2]; Rate 4 g/ha
  Plant response rating (0 to 100), Soybean: 10
Soybean [2]; Rate 16 g/ha
  Plant response rating (0 to 100), Soybean: 30
cheatgrass; POSTEMERGENCE, Rate 50 g/ha
  Plant response rating, Cheatgrass: 7
cheatgrass; POSTEMERGENCE, Rate 200 g/ha
  Plant response rating, Cheatgrass: 10
cheatgrass; PREEMERGENCE, Rate 50 g/ha
  Plant response rating, Cheatgrass: 2
cheatgrass; Rate 200 g/ha, PREEMERGENCE
  Plant response rating, Cheatgrass: 6
Wild buckwheat; 62 g/ha
  Plant response rating, Wild buckwheat: 100
Wild buckwheat; 250 g/ha
  Plant response rating, Wild buckwheat: 100
Wild buckwheat; Rate 4 g/ha
  Plant response rating (0 to 100), Wild buckwheat: 70
Wild buckwheat; Rate 16 g/ha
  Plant response rating (0 to 100), Wild buckwheat: 90
chickweed; 62 g/ha
  Plant response rating, Chickweed: 95
chickweed; 250 g/ha
  Plant response rating, Chickweed: 100
chickweed; Rate 4 g/ha
  Plant response rating (0 to 100), Chickweed: 30
chickweed; Rate 16 g/ha
  Plant response rating (0 to 100), Chickweed: 80
Giant foxtail; POSTEMERGENCE, Rate 50 g/ha
  Plant response rating, Giant foxtail: 6
Giant foxtail; PREEMERGENCE, Rate 50 g/ha
  Plant response rating, Giant foxtail: 7
Giant foxtail; Rate 200 g/ha, POSTEMERGENCE
  Plant response rating, Giant foxtail: 9
Giant foxtail; Rate 200 g/ha, PREEMERGENCE
  Plant response rating, Giant foxtail: 8
rape; POSTEMERGENCE, Rate 50 g/ha
  Plant response rating, Rape: 9
rape; PREEMERGENCE, Rate 50 g/ha
  Plant response rating, Rape: 2
rape; Rate 200 g/ha, POSTEMERGENCE
  Plant response rating, Rape: 10
rape; Rate 200 g/ha, PREEMERGENCE
  Plant response rating, Rape: 8
Lambsquarters [3]; 62 g/ha
  Plant response rating Lambsquarters: 100
Lambsquarters [3]; 250 g/ha
  Plant response rating Lambsquarters: 100
Lambsquarters [3]; Rate 4 g/ha
  Plant response rating (0 to 100), Lambsquarters: 90
Lambsquarters [3]; Rate 16 g/ha
  Plant response rating (0 to 100), Lambsquarters: 100
crabgrass; POSTEMERGENCE, Rate 200 g/ha
  Plant response rating, Crabgrass: 10
crabgrass; PREEMERGENCE, Rate 50 g/ha
  Plant response rating, Crabgrass: 3
crabgrass; Rate 200 g/ha, PREEMERGENCE
  Plant response rating, Crabgrass: 9
Barley [4]; 62 g/ha
  Plant response rating Barley Igri: 40
Barley [4]; 250 g/ha
  Plant response rating Barley Igri: 60
Barley [4]; Rate 4 g/ha
  Plant response rating (0 to 100), Barley Igri: 10
Barley [4]; Rate 16 g/ha
  Plant response rating (0 to 100), Barley Igri: 30
pigweed; 62 g/ha
  Plant response rating Pigweed: 100
pigweed; 250 g/ha
  Plant response rating Pigweed: 100
pigweed; Rate 4 g/ha
  Plant response rating (0 to 100), Pigweed: 90
pigweed; Rate 16 g/ha
  Plant response rating (0 to 100), Pigweed: 100
Sugar beet; 62 g/ha
  Plant response rating, Sugar beet: 100
Sugar beet; 250 g/ha
  Plant response rating, Sugar beet: 100
Sugar beet; Rate 4 g/ha
  Plant response rating (0 to 100), Sugar beet: 80
Sugar beet; Rate 16 g/ha
  Plant response rating (0 to 100), Sugar beet: 100
Purple nutsedge; POSTEMERGENCE, Rate 50 g/ha
  Plant response rating, Nutsedge: 4
Purple nutsedge; PREEMERGENCE, Rate 50 g/ha
  Plant response rating, Nutsedge: 0
Purple nutsedge; Rate 200 g/ha, POSTEMERGENCE
  Plant response rating, Nutsedge: 8
Purple nutsedge; Rate 200 g/ha, PREEMERGENCE
  Plant response rating, Nutsedge: 3
blackgrass; POSTEMERGENCE, Rate 50 g/ha
  Plant response rating, Blackgrass: 8
blackgrass; POSTEMERGENCE, Rate 200 g/ha
  Plant response rating, Blackgrass: 9
blackgrass; PREEMERGENCE, Rate 50 g/ha
  Plant response rating, Blackgrass: 4
blackgrass; Rate 200 g/ha, PREEMERGENCE
  Plant response rating, Blackgrass: 6
velvetleaf; POSTEMERGENCE, Rate 50 g/ha
  Plant response rating, Velvetleaf: 9
velvetleaf; PREEMERGENCE, Rate 50 g/ha
  Plant response rating, Velvetleaf: 4
velvetleaf; Rate 200 g/ha, POSTEMERGENCE
  Plant response rating, Velvetleaf: 10
velvetleaf; Rate 200 g/ha, PREEMERGENCE
  Plant response rating, Velvetleaf: 8
ryegrass; 62 g/ha
  Plant response rating Ryegrass: 50
ryegrass; 250 g/ha
  Plant response rating Ryegrass: 90
ryegrass; Rate 4 g/ha
  Plant response rating (0 to 100), Ryegrass: 20
ryegrass; Rate 16 g/ha
  Plant response rating (0 to 100), Ryegrass: 30
Lambsquarters [5]; POSTEMERGENCE, Rate 50 g/ha
  Plant response rating, Lambsquarter: 10
Lambsquarters [5]; PREEMERGENCE, Rate 50 g/ha
  Plant response rating, Lambsquarter: 10
Lambsquarters [5]; Rate 200 g/ha, POSTEMERGENCE
  Plant response rating, Lambsquarter: 10
Lambsquarters [5]; Rate 200 g/ha, PREEMERGENCE
  Plant response rating, Lambsquarter: 10
Barley [6]; POSTEMERGENCE, Rate 50 g/ha
  Plant response rating, Barley: 4
Barley [6]; POSTEMERGENCE, Rate 200 g/ha
  Plant response rating, Barley: 6
Barley [6]; PREEMERGENCE, Rate 50 g/ha
  Plant response rating, Barley: 1
Barley [6]; Rate 200 g/ha, PREEMERGENCE
  Plant response rating, Barley: 2
